PubChem BioAssay AID316 (DTP/NCI, 2004)
“And” between values parts separate entries of the source, which are not always exact repeats. Identical values can stand only once. Inconclusive results and toxic doses are left out.

System: P1534 leukemia ip, CD2F1 mice, survival T/C
Assay: NCI In Vivo Anticancer Drug Screen. Data for tumor model P1534 Leukemia (intraperitoneal) in CD2F1 (CDF1) mice
Conditions: endpoint: mean survival time, higher = longer survival
Method: The antitumor activity of compounds was measured in mice bearing transplantable tumors. Survival or tumor size were measured and the results are expressed as the measurement made in the treated group (T) divided by the measurement made in the vehicle treated control group (C). The tumor model used in this assay is P1534 Leukemia (intraperitoneal) in CD2F1 (CDF1) mice

[1] = dose: 50.0 mg/kg/injection, schedule: Q01DX010 (ip), vehicle: saline
[2] = dose: 100.0 mg/kg/injection, schedule: Q01DX010 (ip), vehicle: saline
[3] = dose: 200.0 mg/kg/injection, schedule: Q01DX010 (ip), vehicle: saline
[4] = dose: 400.0 mg/kg/injection, schedule: Q01DX010 (ip), vehicle: saline
[5] = dose: 25.0 mg/kg/injection, schedule: Q01DX010 (ip), vehicle: saline
[6] = dose: 12.5 mg/kg/injection, schedule: Q01DX010 (ip), vehicle: saline
[7] = dose: 80.0 mg/kg/injection, schedule: Q01DX010 (ip), vehicle: saline

With `NC(=O)c1ccc(N)nc1` the T/C (dose: 0.25 mg/kg/injection, schedule: Q#A X020 (ip), vehicle: saline) was 119 % of control, the T/C (dose: 0.38 mg/kg/injection, schedule: Q01DX010 (ip), vehicle: saline) was 120 % of control and 94 % of control and the T/C (dose: 0.75 mg/kg/injection, schedule: Q01DX010 (ip), vehicle: saline) was 153 % of control. For the same compound, the T/C (dose: 1.5 mg/kg/injection, schedule: Q01DX006 (iv), vehicle: saline) was 114 % of control, the T/C (dose: 1.5 mg/kg/injection, schedule: Q01DX010 (im), vehicle: saline) was 121 % of control and the T/C (dose: 1.5 mg/kg/injection, schedule: Q01DX010 (oral), vehicle: saline) was 100 % of control. For the same compound, the T/C (dose: 1.5 mg/kg/injection, schedule: Q01DX010 (sc), vehicle: saline) was 121 % of control, the T/C (dose: 1.5 mg/kg/injection, schedule: Q03DX Z (ip), vehicle: saline) was 119 % of control and the T/C (dose: 2.0 mg/kg/injection, schedule: Q#A X020 (ip), vehicle: saline) was 100 % of control. For the same compound, the T/C (dose: 3.0 mg/kg/injection, schedule: Q01DX006 (iv), vehicle: saline) was 114 % of control, the T/C (dose: 3.0 mg/kg/injection, schedule: Q01DX010 (im), vehicle: saline) was 121 % of control and the T/C (dose: 3.0 mg/kg/injection, schedule: Q01DX010 (ip), vehicle: saline) was 158 % of control. The T/C (dose: 3.0 mg/kg/injection, schedule: Q01DX010 (oral), vehicle: saline) was 123 % of control, the T/C (dose: 3.5 mg/kg/injection, schedule: Q01DX001 (ip), vehicle: saline) was 115 % of control and the T/C (dose: 3.5 mg/kg/injection, schedule: Q07DX Z (ip), vehicle: saline) was 115 % of control. For the same compound, the T/C (dose: 6.0 mg/kg/injection, schedule: Q01DX010 (im), vehicle: saline) was 121 % of control, the T/C (dose: 6.0 mg/kg/injection, schedule: Q01DX010 (ip), vehicle: saline) was 88 % of control and the T/C (dose: 7.0 mg/kg/injection, schedule: Q01DX001 (ip), vehicle: saline) was 115 % of control. The T/C (dose: 12.0 mg/kg/injection, schedule: Q03DX Z (ip), vehicle: saline) was 119 % of control, the T/C (dose: 14.0 mg/kg/injection, schedule: Q01DX001 (ip), vehicle: saline) was 117 % of control and 119 % of control and the T/C (dose: 14.0 mg/kg/injection, schedule: Q07DX Z (ip), vehicle: saline) was 117 % of control and 119 % of control. For the same compound, the T/C (dose: 28.0 mg/kg/injection, schedule: Q01DX001 (ip), vehicle: saline) was 88 % of control and the T/C (dose: 112.0 mg/kg/injection, schedule: Q01DX001 (ip), vehicle: saline) was 121 % of control.
In the case of `COc1ccc2c(=O)cc(-c3ccccc3)n(C)c2c1`, the T/C [1] is reported as 103 % of control, the T/C [2] is reported as 103 % of control and the T/C [3] is reported as 103 % of control. For the same compound, the T/C [4] was 96 % of control.
In the case of `SCc1ccccn1`, the T/C [5] is reported as 107 % of control, the T/C [1] is reported as 100 % of control and the T/C [2] is reported as 115 % of control. The T/C [3] was 115 % of control.
In the case of `CN(C)CC(=O)NCCCCCCCCCCNC(=O)CN(C)C`, the T/C [2] is reported as 100 % of control, the T/C [3] is reported as 100 % of control and the T/C [4] is reported as 107 % of control.
With `NCCCC(=O)NCCCCCCCCCCNC(=O)CCCN` the T/C [6] was 96 % of control, the T/C [5] was 93 % of control and the T/C [1] was 96 % of control. The T/C [2] was 103 % of control.
For `CN(C)c1ccc(Nc2c3ccccc3nc3ccccc23)cc1`, the T/C (dose: 36.0 mg/kg/injection, schedule: Q01DX010 (ip), vehicle: saline) was 121 % of control and the T/C [7] was 92 % of control.
With `CC(=O)OC(C)(C)/C=C/C(=O)[C@](C)(O)[C@H]1[C@H](O)C[C@@]2(C)[C@@H]3CC=C4[C@@H](C[C@H](O)C(=O)C4(C)C)[C@]3(CO)C(=O)C[C@]12C` the T/C (dose: 0.16 mg/kg/injection, schedule: Q01DX010 (ip), vehicle: saline) was 103 % of control, the T/C (dose: 0.25 mg/kg/injection, schedule: Q01DX010 (ip), vehicle: saline) was 107 % of control and the T/C (dose: 0.57 mg/kg/injection, schedule: Q01DX010 (ip), vehicle: saline) was 103 % of control.
`C[C@@H]1CCC([C@@H](C)[C@H]2CC[C@H]3[C@@H]4CC[C@H]5C[C@@H](O)CC[C@]5(C)[C@H]4CC[C@]23C)=NC1` was tested, and the T/C [6] was 107 % of control, the T/C [5] was 103 % of control and the T/C [1] was 100 % of control. For the same compound, the T/C [2] was 100 % of control.
In the case of `CCC(C)n1ncc2c(N(C)C)ncnc21` (stereo not given), the T/C (dose: 16.25 mg/kg/injection, schedule: Q01DX010 (ip), vehicle: saline) is reported as 107 % of control, the T/C (dose: 32.5 mg/kg/injection, schedule: Q01DX010 (ip), vehicle: saline) is reported as 111 % of control and the T/C (dose: 65.0 mg/kg/injection, schedule: Q01DX010 (ip), vehicle: saline) is reported as 96 % of control.
`COc1ccc(C(=O)C[C@H]2CCC[C@@H](CC(=O)c3ccc(OC)cc3)N2C)cc1` was tested, and the T/C (dose: 10.0 mg/kg/injection, schedule: Q01DX010 (ip), vehicle: saline) was 107 % of control, the T/C (dose: 20.0 mg/kg/injection, schedule: Q01DX010 (ip), vehicle: saline) was 100 % of control and the T/C (dose: 40.0 mg/kg/injection, schedule: Q01DX010 (ip), vehicle: saline) was 100 % of control. The T/C [7] was 107 % of control.
With `CC/C(=C(/CC)c1ccc(O)cc1)c1ccc(O)cc1` the T/C (dose: 12.5 mg/kg/injection, schedule: Q01DX010 (sc), vehicle: steriod suspending solution) was 95 % of control and 100 % of control, the T/C (dose: 25.0 mg/kg/injection, schedule: Q01DX010 (sc), vehicle: steriod suspending solution) was 95 % of control and 100 % of control and the T/C (dose: 50.0 mg/kg/injection, schedule: Q01DX010 (sc), vehicle: steriod suspending solution) was 95 % of control and 100 % of control. For the same compound, the T/C (dose: 100.0 mg/kg/injection, schedule: Q01DX010 (sc), vehicle: steriod suspending solution) was 90 % of control and 100 % of control.
`COc1c(OC2OC(CO)C(O)C(O)C2O)cc2c(c1OC)-c1ccc(OC)c(=O)cc1C(NC(C)=O)CC2` (stereo not given) was tested, and the T/C (dose: 6.25 mg/kg/injection, schedule: Q01DX010 (ip), vehicle: saline) was 107 % of control, the T/C [6] was 107 % of control and the T/C [5] was 107 % of control. For the same compound, the T/C [1] was 107 % of control and 110 % of control.
For `CC(C)=CCN=C(N)N`, the T/C [6] was 103 % of control and the T/C [5] was 106 % of control.
For `O=C1C(=O)N(CN2CCCCC2)c2ccccc21`, the T/C [1] was 100 % of control, the T/C [2] was 100 % of control and the T/C [3] was 96 % of control. For the same compound, the T/C [4] was 100 % of control.
For `COC1=C(N)C(=O)c2nc(-c3nc(C(=O)O)c(C)c(-c4ccc(OC)c(OC)c4O)c3N)ccc2C1=O`, the T/C (dose: 0.06 mg/kg/injection, schedule: Q01DX010 (ip), vehicle: saline) was 117 % of control, the T/C (dose: 0.09 mg/kg/injection, schedule: Q01DX010 (ip), vehicle: saline) was 110 % of control and the T/C (dose: 0.13 mg/kg/injection, schedule: Q01DX010 (ip), vehicle: saline) was 103 % of control.
`CC(=O)O[C@H]1C(=O)[C@@]2(C)[C@H]([C@H](OC(=O)c3ccccc3)[C@]3(O)C[C@H](OC(=O)[C@H](O)[C@@H](NC(=O)c4ccccc4)c4ccccc4)C(C)=C1C3(C)C)[C@]1(OC(C)=O)CO[C@@H]1C[C@@H]2O` was tested, and the T/C (dose: 1.88 mg/kg/injection, schedule: Q01DX010 (ip), vehicle: saline) was 300 % of control, the T/C (dose: 3.75 mg/kg/injection, schedule: Q01DX010 (ip), vehicle: saline) was 300 % of control and the T/C (dose: 7.5 mg/kg/injection, schedule: Q01DX010 (ip), vehicle: saline) was 250 % of control. The T/C (dose: 15.0 mg/kg/injection, schedule: Q01DX010 (ip), vehicle: saline) was 89 % of control.
With `COC(=O)C1=COC(C)C2CN3CCc4c([nH]c5cc(OC)c(OC)cc45)C3CC12` (stereo not given) the T/C [1] was 96 % of control, the T/C [2] was 100 % of control and the T/C [3] was 100 % of control.
In the case of `COc1ccc2c(c1OC)C(=O)O[C@@H]2[C@H]1c2c(cc3c(c2OC)OCO3)CCN1C`, the T/C (dose: 31.3 mg/kg/injection, schedule: Q01DX010 (ip), vehicle: saline) is reported as 103 % of control, the T/C (dose: 62.5 mg/kg/injection, schedule: Q01DX010 (ip), vehicle: saline) is reported as 92 % of control and 100 % of control and the T/C (dose: 125.0 mg/kg/injection, schedule: Q01DX010 (ip), vehicle: saline) is reported as 100 % of control. The T/C (dose: 250.0 mg/kg/injection, schedule: Q01DX010 (ip), vehicle: saline) was 100 % of control.
In the case of `CC[C@H](CC[C@@H](C)[C@H]1CC[C@H]2[C@@H]3CC=C4C[C@@H](O)CC[C@]4(C)[C@H]3CC[C@]12C)C(C)C`, the T/C (dose: 50.0 mg/kg/injection, schedule: Q01DX010 (ip), vehicle: other) is reported as 100 % of control, the T/C (dose: 100.0 mg/kg/injection, schedule: Q01DX010 (ip), vehicle: other) is reported as 100 % of control and the T/C (dose: 200.0 mg/kg/injection, schedule: Q01DX010 (ip), vehicle: other) is reported as 106 % of control. The T/C (dose: 300.0 mg/kg/injection, schedule: Q01DX010 (ip), vehicle: other) was 108 % of control.
`CN(C)c1ccc(/C=C\c2ccnc3ccccc23)cc1` was tested, and the T/C (dose: 8.0 mg/kg/injection, schedule: Q01DX010 (ip), vehicle: saline) was 115 % of control, the T/C (dose: 12.0 mg/kg/injection, schedule: Q01DX010 (ip), vehicle: saline) was 115 % of control and the T/C (dose: 18.0 mg/kg/injection, schedule: Q01DX010 (ip), vehicle: saline) was 103 % of control and 100 % of control. For the same compound, the T/C (dose: 27.0 mg/kg/injection, schedule: Q01DX010 (ip), vehicle: saline) was 123 % of control.
